Here are results for three compounds from US9320753B2, “Organ arrest, protection and preservation” (priority 1999, dated 2016).

The conditions of data set [1]: cited from earlier work.
The test system of data set [2] is isolated working rat heart. Nature of the data set: Lignocaine alone in the isolated working rat heart. As to conditions: lignocaine alone at 0.5, 1.0 and 1.5 mM. The text has this: Lignocaine is a local anaesthetic which blocks sodium fast channels and has antiarrhythmatic properties by reducing the magnitude of inward sodium current. The accompanying shortening of the action potential is thought to directly reduce calcium entry into the cell via Ca^2+ selective channels and Na^+/Ca^2+ exchange. Recent reports also implicate lignocaine with the scavenging of free radicals such as hydroxyl and singlet oxygen in the heart during reperfusion.

In the next data set the test system is heart. Nature of the data set: Arrest with pinacidil plus local anaesthetics (Example 7). The note with it: arrest solutions with local anaesthetics. How it is done: Arrest solutions were made with pinacidil dissolved in 0.05% dimethysulfoxide (DMSO) (200 μM) the local anaesthetics prilocalne, procaine, mepivacaine and lignocaine in Krebs-Henseleit solution.

For data set [3] the following is noted: requires a carrier (DMSO); cited from earlier work.

Structures are written as SMILES.

On to `Nc1ncnc2c1ncn2[C@@H]1O[C@H](CO)[C@@H](O)[C@H]1O` [adenosine], for which the “half life in the blood” value in data set [1] is “about 10 seconds”.

Take `CCN(CC)CC(=O)Nc1c(C)cccc1C` [lignocaine]: in data set [2], the “functional recoveries” value is “highly variable functional recoveries”.

As for `CC(N/C(=N\C#N)Nc1ccncc1)C(C)(C)C` (stereo not shown) [pinacidil], the “effectiveness compared with adenosine” value in the data set on heart was “not as effective as adenosine”. Also, the “solubility in aqueous solutions” value in data set [3] was “low solubility in aqueous solutions”.
